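Test compounds were applied to cells in 96-well plates for 48 hours at 5 doses. TGI: concentration producing complete growth inhibition.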
Experiments:
Assay in all cases: growth of human tumour cells (NCI), 48 h
786-0 renal = tested on: 786-0 renal
A498 renal = tested on: A498 renal
A549 NSCLC = tested on: A549 NSCLC
ACHN renal = tested on: ACHN renal
CAKI-1 renal = tested on: CAKI-1 renal
CCRF-CEM leukemia = tested on: CCRF-CEM leukemia
COLO 205 colon = tested on: COLO 205 colon
DLD-1 colon = tested on: DLD-1 colon
DMS 114 small cell lung = tested on: DMS 114 small cell lung
EKVX NSCLC = tested on: EKVX NSCLC
HCC-2998 colon = tested on: HCC-2998 colon
HCT-116 colon = tested on: HCT-116 colon
HL-60(TB) leukemia = tested on: HL-60(TB) leukemia
HOP-18 NSCLC = tested on: HOP-18 NSCLC
HOP-62 NSCLC = tested on: HOP-62 NSCLC
HOP-92 NSCLC = tested on: HOP-92 NSCLC
HT29 colon = tested on: HT29 colon
IGROV1 ovarian = tested on: IGROV1 ovarian
K-562 leukemia = tested on: K-562 leukemia
KM12 colon = tested on: KM12 colon
KM20L2 colon = tested on: KM20L2 colon
LOX IMVI melanoma = tested on: LOX IMVI melanoma
LXFL 529 NSCLC = tested on: LXFL 529 NSCLC
M14 melanoma = tested on: M14 melanoma
M19-MEL melanoma = tested on: M19-MEL melanoma
MALME-3M melanoma = tested on: MALME-3M melanoma
MOLT-4 leukemia = tested on: MOLT-4 leukemia
NCI-H226 lung = tested on: NCI-H226 lung
NCI-H23 lung = tested on: NCI-H23 lung
NCI-H460 lung = tested on: NCI-H460 lung
NCI-H522 lung = tested on: NCI-H522 lung
OVCAR-3 ovarian = tested on: OVCAR-3 ovarian
OVCAR-4 ovarian = tested on: OVCAR-4 ovarian
OVCAR-5 ovarian = tested on: OVCAR-5 ovarian
OVCAR-8 ovarian = tested on: OVCAR-8 ovarian
RPMI-8226 leukemia = tested on: RPMI-8226 leukemia
RXF 393 renal = tested on: RXF 393 renal
RXF-631 renal = tested on: RXF-631 renal
SF-268 CNS = tested on: SF-268 CNS
SF-295 CNS = tested on: SF-295 CNS
SF-539 CNS = tested on: SF-539 CNS
SK-MEL-2 melanoma = tested on: SK-MEL-2 melanoma
SK-MEL-28 melanoma = tested on: SK-MEL-28 melanoma
SK-OV-3 ovarian = tested on: SK-OV-3 ovarian
SN12C renal = tested on: SN12C renal
SNB-19 CNS = tested on: SNB-19 CNS
SNB-75 CNS = tested on: SNB-75 CNS
SR leukemia = tested on: SR leukemia
SW-620 colon = tested on: SW-620 colon
TK-10 renal = tested on: TK-10 renal
U251 CNS = tested on: U251 CNS
UACC-257 melanoma = tested on: UACC-257 melanoma
UACC-62 melanoma = tested on: UACC-62 melanoma
UO-31 renal = tested on: UO-31 renal
XF 498 CNS = tested on: XF 498 CNS
DMS 273 small cell lung = tested on: DMS 273 small cell lung
HCT-15 colon = tested on: HCT-15 colon
SNB-78 CNS = tested on: SNB-78 CNS

Measured: TGI

O=C(CCc1ccccc1)NS(=O)(=O)c1ccccc1
not listed: DMS 273 small cell lung | HCT-15 colon | SNB-78 CNS
> 100 µM: all other assays above

COc1ccc(C2ON(c3ccccc3)CC=C2C)cc1 (centres undefined)
78.3 µM: SK-MEL-2 melanoma
99.5 µM: NCI-H522 lung
not listed: A498 renal | DMS 114 small cell lung | HOP-18 NSCLC | HOP-92 NSCLC
> 100 µM: all other assays above
